Results as given in PubChem BioAssay AID2060599 (Molecular Pharmacology Branch, DTP, NCI, 2025).

Test system: 817829-284-R-J1-PDC complex spheroids, viability
Test: Anticancer human tumor 817829-284-R-J1-PDC patient-derived colon adenocarcinoma cell line growth inhibition [CLK]
Conditions: for IC50: curve of first compound; for viability, T/C: stronger effect = lower value
Excerpt: A high-throughput screen of multi-cell type tumor spheroids was designed to identify active combinations of […] and targeted small molecules. Complex spheroids include a stromal component modeled by human endothelial cells (HUVEC) and fibroblasts modeled by human mesenchymal stem cells (MSCs). The concentration ranges selected for each drug and investigational agent were based upon clinically achievable concentrations if the clinical Cmax of the agent was known.
Compounds. The drugs and investigational agents: cirtuvivint (SM08502; NSC835563), CC-671 (NSC850746), vemurafenib (NSC761431), tapotoclax (NSC804041), sotorasib (NSC818433), adagrasib (NSC831453), MRTX-1133 (NSC836407), BAY2416964 (NSC825713), copanlisib (NSC816437), inavolisib (NSC800729), abemaciclib (NSC768073), osimertinib (NSC779217), entinostat (NSC756642), eltanexor (KPT-8602, NSC794443), venetoclax (NSC766270), ceralasertib (NSC777638), bortezomib (NSC756655), olaparib (NSC753686), talazoparib (NSC767125), alisertib (NSC759677), peposertib (NSC802822), gemcitabine (NSC613327), 5-fluorouracil (NSC19893), SN-38 (NSC673596), oxaliplatin (NSC266046), paclitaxel (NSC125973), and doxorubicin (NSC123127), were obtained from the National Cancer Institute (NCI) Developmental Therapeutics Program Chemical Repository. The FDA-approved anticancer drug set is available from the Developmental Therapeutics Program at https://dtp.cancer.gov/organization/dscb/obtaining/available plates.htm. […] The stock solutions were prepared in dimethyl sulfoxide (DMSO, Sigma-Aldrich, St. Louis, MO, cat. D2650), except for the platinum complexes which were prepared in saline (Quality Biological, Gaithersburg, MD, cat. 114-055-101), at 800-fold the tested concentration and stored at -70 degrees C prior to their use. All drugs and investigational agents were tested over a range starting from a high concentration at or near the clinical Cmax and decreasing in half-log increments. If the clinical Cmax for an agent had not been determined, the highest concentration tested was 10 microM.
Cell Culture. All cells were maintained in an incubator at 37 degrees C and 5% CO2 with 95% humidity. The PDC lines were cultured according to standard operating procedures established by the NCI PDMR. Briefly, all PDCs were thawed and cultured in Matrigel-coated flasks prepared with a working solution of 1X Ham's F-12 nutrient mix, without supplementation (Invitrogen, Waltham, MA, cat. 11765054), 100 U/mL penicillin-streptomycin (Invitrogen, cat. 15140122), and 2.5% Matrigel (Corning Inc., Corning, NY, cat. 354248) for the first three passages. The 947758-054-R-J2-PDC line was cultured in 6B/Colon 1A media, which includes advanced DMEM/F-12 (Thermo Fisher Scientific, cat. 12634028), 10 mM HEPES (Thermo Fisher Scientific, cat. 15630080), 1X GlutaMAX supplement (Thermo Fisher Scientific, cat. 35050061), 0.1 mg/mL primocin (InvivoGen, cat. ant-pm-2), 10% defined fetal bovine serum, heat inactivated (HyClone Laboratories Inc., cat. SH30070.03HI), 1.25 mM N-Acetyl-L-cysteine (Sigma-Aldrich, cat. A9165), 10 mM nicotinamide (Sigma-Aldrich, cat. N0636), 1X B-27 supplement (Thermo Fisher Scientific, cat. 17504044), 1X N-2 supplement (Thermo Fisher Scientific, cat. 17502048), and 10 microM Y-27632 dihydrochloride (Tocris Bioscience, cat. 1254). The 876862-298-R-J1-PDC was cultured in 6E media, which includes all 6B/Colon 1A media components plus 50% L-WRN conditioned media (ATCC, cat. CRL-3276), 50 ng/mL recombinant human EGF recombinant protein (hEGF; Thermo Fisher Scientific, cat. PHG0311), 10 ng/mL recombinant human fibroblast growth factor 10 (hGFG-10; PeproTech, cat. 100-26), 1 ng/mL recombinant human fibroblast growth factor 2 (hFGF-2; PeproTech, cat. 100-18B), and 1 µM prostaglandin E2 (PGE2; Tocris, cat. 2296). The 227483-062-R1-J1-PDC line was cultured in Panc media, containing all 6E components except hFGF-2, with the addition of 500 nM SB-431542 (Selleckchem, cat. S1067) and 10 nM gastrin (Tocris, cat. 3006). […]
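Note: spheroids exposed to the agents for seven days before readout.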

Molecule `C=C(F)C(=O)N1CCN(c2nc(OCC3CCCN3C)nc3c2CCN(c2cccc4cccc(Cl)c24)C3)CC1CC#N` (configuration not stated) + CN1CCN(c2cc(C(=O)Nc3cc4cc(-c5cnn(C)c5)ccc4cn3)ccn2)CC1 has an IC50 (second compound 0.0316 µM) of 1600 nM, an IC50 (second compound 0.1 µM) of under 31.6 nM and an IC50 (second compound 0.316 µM) of under 31.6 nM. The IC50 (second compound 1 µM) was under 31.6 nM, the IC50 (second compound 3.16 µM) was under 31.6 nM and the IC50 (second compound 10 µM) was under 31.6 nM. For the same molecule, the viability, T/C (second compound 0.0316 µM, first compound 0.0316 µM) was 79.5%, the viability, T/C (second compound 0.0316 µM, first compound 0.1 µM) was 71.8% and the viability, T/C (second compound 0.0316 µM, first compound 0.316 µM) was 63.4%. For the same molecule, the viability, T/C (second compound 0.0316 µM, first compound 1 µM) was 79.5%, the viability, T/C (second compound 0.0316 µM, first compound 3.16 µM) was 16.2% and the viability, T/C (second compound 0.0316 µM, first compound 10 µM) was 0.06%. For the same molecule, the viability, T/C (second compound 0.1 µM, first compound 0.0316 µM) was 24.5%, the viability, T/C (second compound 0.1 µM, first compound 0.1 µM) was 29.8% and the viability, T/C (second compound 0.1 µM, first compound 0.316 µM) was 16.7%. The viability, T/C (second compound 0.1 µM, first compound 1 µM) was 22.5%, the viability, T/C (second compound 0.1 µM, first compound 3.16 µM) was 9.48% and the viability, T/C (second compound 0.1 µM, first compound 10 µM) was 0.04%. It also gave a viability, T/C (second compound 0.316 µM, first compound 0.0316 µM) of 2.04%, a viability, T/C (second compound 0.316 µM, first compound 0.1 µM) of 2.26% and a viability, T/C (second compound 0.316 µM, first compound 0.316 µM) of 2.74%. For the same molecule, the viability, T/C (second compound 0.316 µM, first compound 1 µM) was 2.59%, the viability, T/C (second compound 0.316 µM, first compound 3.16 µM) was 0.76% and the viability, T/C (second compound 0.316 µM, first compound 10 µM) was 0.04%. For the same molecule, the viability, T/C (second compound 1 µM, first compound 0.0316 µM) was 0.15%, the viability, T/C (second compound 1 µM, first compound 0.1 µM) was 0.11% and the viability, T/C (second compound 1 µM, first compound 0.316 µM) was 0.11%. It also gave a viability, T/C (second compound 1 µM, first compound 1 µM) of 0.11%, a viability, T/C (second compound 1 µM, first compound 3.16 µM) of 0.84% and a viability, T/C (second compound 1 µM, first compound 10 µM) of 0.05%. The viability, T/C (second compound 3.16 µM, first compound 0.0316 µM) was 0.2%, the viability, T/C (second compound 3.16 µM, first compound 0.1 µM) was 0.19% and the viability, T/C (second compound 3.16 µM, first compound 0.316 µM) was 0.2%. The viability, T/C (second compound 3.16 µM, first compound 1 µM) was 0.15%, the viability, T/C (second compound 3.16 µM, first compound 3.16 µM) was 0.11% and the viability, T/C (second compound 3.16 µM, first compound 10 µM) was 0.08%. For the same molecule, the viability, T/C (second compound 10 µM, first compound 0.0316 µM) was 0.1%, the viability, T/C (second compound 10 µM, first compound 0.1 µM) was 0.11% and the viability, T/C (second compound 10 µM, first compound 0.316 µM) was 0.19%. The viability, T/C (second compound 10 µM, first compound 1 µM) was 0.21%, the viability, T/C (second compound 10 µM, first compound 3.16 µM) was 0.2% and the viability, T/C (second compound 10 µM, first compound 10 µM) was 0.16%.
